Measured values as given in ChEMBL document CHEMBL4837230, “Thiophene-2-carboxamide derivatives of anthraquinone: A new potent antitumor chemotype” (Eur J Med Chem, 2021).
Active and inactive are the calls of the source. The calls are words filed in the database; no cut-off is given here.

Legend:
[1] = test system: K562; assay: Induction of cell cycle arrest in human K562 cells assessed as increase in accumulation at sub-G1 phase at 5 uM after 48 hrs by propidium iodide staining based flow cytometric analysis (reference value: 8.4%); format: functional
[2] = test system: K562; assay: Induction of cell cycle arrest in human K562 cells assessed as increase in accumulation at sub-G1 phase at 0.5 uM after 48 hrs by propidium iodide staining based flow cytometric analysis (reference value: 8.4%); format: functional
[3] = test system: K562; assay: Induction of cell cycle arrest in human K562 cells assessed as increase in accumulation at sub-G1 phase at 0.5 uM after 24 hrs by propidium iodide staining based flow cytometric analysis (reference value: 8.4%); format: functional
[4] = test system: K562; assay: Cytotoxicity in human K562 cells assessed as reduction in cell viability incubated for 72 hrs by MTT assay; format: functional, cell-based; conditions: K562, 72 h
[5] = test system: Fibroblast; assay: Cytotoxicity in human Fibroblast cells assessed as reduction in cell viability incubated for 72 hrs by MTT assay; format: functional, cell-based
[6] = Resistance index, ratio of IC50 for cytotoxicity against human K562/4 cells to IC50 for cytotoxicity against human K562 cells; format: functional
[7] = test system: K562; assay: Cytotoxicity in human K562 cells assessed as reduction in cell viability at 0.5 uM incubated for 72 hrs by propidium iodide staining based flow cytometric analysis; format: functional
[8] = test system: K562; assay: Cytotoxicity in human K562 cells assessed as reduction in cell viability at 1 uM incubated for 72 hrs by propidium iodide staining based flow cytometric analysis; format: functional
[9] = test system: K562; assay: Cytotoxicity in human K562 cells assessed as reduction in cell viability at 1 uM incubated with compound for 60 mins followed by cell washing and measured after 72 hrs by propidium iodide staining based flow cytometric analysis; format: functional
[10] = test system: K562; assay: Cytotoxicity in human K562 cells assessed as reduction in cell viability at 0.5 uM incubated with compound for 120 mins followed by cell washing and measured after 72 hrs by propidium iodide staining based flow cytometric analysis; format: functional; conditions: 2 h
[11] = test system: K562; assay: Cytotoxicity in human K562 cells assessed as reduction in cell viability at 1 uM incubated with compound for 120 mins followed by cell washing and measured after 72 hrs by propidium iodide staining based flow cytometric analysis; format: functional; conditions: 2 h
[12] = test system: Calf thymus DNA; assay: Binding affinity to calf thymus double strand DNA incubated for 5 mins by spectrophotometry; format: nucleic-acid assay; conditions: Bos taurus
[13] = target: T1, DNA topoisomerase 1 (Homo sapiens) (UniProt P11387); assay: Inhibition of topoisomerase 1 (unknown origin) assessed as relaxation of supercoiled plasmid pBR322 DNA at 1 to 5 uM incubated for 30 mins by electrophoresis; conditions: dose 1-5 µM
T1 sequence (whole entry): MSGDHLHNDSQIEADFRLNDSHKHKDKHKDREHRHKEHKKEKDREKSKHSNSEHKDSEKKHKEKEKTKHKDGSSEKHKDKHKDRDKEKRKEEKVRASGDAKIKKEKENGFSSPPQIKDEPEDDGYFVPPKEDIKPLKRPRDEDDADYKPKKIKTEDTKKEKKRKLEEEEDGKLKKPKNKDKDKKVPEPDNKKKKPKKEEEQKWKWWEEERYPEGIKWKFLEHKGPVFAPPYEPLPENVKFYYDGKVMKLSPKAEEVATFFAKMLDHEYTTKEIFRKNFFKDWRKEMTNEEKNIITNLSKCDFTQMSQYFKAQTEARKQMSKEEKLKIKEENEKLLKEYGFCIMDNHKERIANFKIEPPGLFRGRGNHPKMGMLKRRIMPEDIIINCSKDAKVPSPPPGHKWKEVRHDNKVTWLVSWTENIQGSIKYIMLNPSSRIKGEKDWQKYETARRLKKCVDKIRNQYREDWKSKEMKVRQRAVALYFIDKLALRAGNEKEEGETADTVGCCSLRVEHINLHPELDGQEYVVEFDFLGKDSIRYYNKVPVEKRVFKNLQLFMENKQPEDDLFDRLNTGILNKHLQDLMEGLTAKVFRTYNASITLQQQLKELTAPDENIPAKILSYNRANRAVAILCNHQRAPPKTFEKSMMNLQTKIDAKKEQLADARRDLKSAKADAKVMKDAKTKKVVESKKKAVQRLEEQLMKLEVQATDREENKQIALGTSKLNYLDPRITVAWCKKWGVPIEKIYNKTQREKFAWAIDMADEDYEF

[14] = test system: K562; assay: Induction of ROS generation in human K562 cells at 2.5 uM after 15 to 75 mins by Deep Red dye based flow cytometry method; format: functional, cell-based; conditions: time 15-75 min
[15] = test system: K562; assay: Induction of cell cycle arrest in human K562 cells assessed as increase in accumulation at G0/G1 phase at 2.5 uM by flow cytometric analysis (reference value: 60.9%); format: functional
[16] = test system: K562; assay: Induction of cell cycle arrest in human K562 cells assessed as increase in accumulation at S phase at 2.5 uM by flow cytometric analysis (reference value: 11.2%); format: functional
[17] = test system: K562; assay: Induction of cell cycle arrest in human K562 cells assessed as increase in accumulation at G2/M phase at 2.5 uM by flow cytometric analysis (reference value: 11.8%); format: functional
[18] = test system: K562; assay: Induction of cell cycle arrest in human K562 cells assessed as increase in accumulation at sub-G1 phase at 2.5 uM after 2 hrs by flow cytometric analysis (reference value: 15.2%); format: functional
[19] = test system: K562; assay: Induction of cell cycle arrest in human K562 cells assessed as increase in accumulation at sub-G1 phase at 2.5 uM after 4 hrs by flow cytometric analysis (reference value: 14%); format: functional
[20] = test system: K562; assay: Induction of cell cycle arrest in human K562 cells assessed as increase in accumulation at sub-G1 phase at 2.5 uM after 6 hrs by flow cytometric analysis (reference value: 22.1%); format: functional
[21] = test system: K562; assay: Induction of mitochondrial membrane potential loss in human K562 cells at 2.5 uM after 3 hrs by Mitotracker Red dye based flow cytometric analysis(reference value: 7.8 %); format: functional
[22] = test system: K562; assay: Induction of mitochondrial membrane potential loss in human K562 cells at 2.5 uM after 6 hrs by Mitotracker Red dye based flow cytometric analysis(reference value: 6.4 %); format: functional
[23] = test system: K562; assay: Induction of mitochondrial membrane potential loss in human K562 cells at 7.5 uM after 6 hrs by Mitotracker Red dye based flow cytometric analysis; format: functional, cell-based
[24] = Drug localization in lysosome of mouse NIH3T3 cells at 1 uM incubated for 5 mins by lyso-tracker red based confocal microscopic method; format: ADME, cell-based; conditions: nih3t3, 5 min
[25] = Drug localization in mitochondria of mouse NIH3T3 cells at 1 uM measured after 60 mins by MitoTracker red based confocal microscopic method; format: ADME; conditions: nih3t3, 1 h
[26] = test system: K562; assay: Induction of apoptosis in human K562 cells assessed as viable cells after 3 hrs by Annexin V-[…]/PI double staining based flow cytometric analysis (reference value: 91%); format: functional
[27] = test system: K562; assay: Induction of apoptosis in human K562 cells assessed as necrotic cells after 3 hrs by Annexin V-APC/PI double staining based flow cytometric analysis (reference value: 6.3%); format: functional
[28] = test system: K562; assay: Induction of apoptosis in human K562 cells assessed as activation of casapse-3 cleavage at 2.5 uM measured after 6 hrs by Western blot analysis; format: functional, cell-based
[29] = test system: K562; assay: Induction of apoptosis in human K562 cells assessed as activation of casapse-9 cleavage at 2.5 uM measured after 6 hrs by Western blot analysis; format: functional, cell-based
[30] = test system: K562; assay: Cytotoxicity against human K562 cells in presence of NAC; format: functional, cell-based

N[C@H]1CCN(C(=O)c2cc3c(O)c4c(c(O)c3s2)C(=O)c2ccccc2C4=O)C1
Activity [1]: 89.7% | Activity [2]: 33.2% | Activity [3]: 18.7% | IC50 [4]: 300 nM | IC50 [5]: 1400 nM | Ratio [6]: 1.3 | Activity [7]: 77.6% | Activity [8]: 79.9% | Activity [9]: 6.3% | Activity [10]: 8.7% | Activity [11]: 56.4% | Activity [12]: inactive | inhibition [13]: inactive | Activity [14]: inactive | Activity [15]: 59.1% | Activity [16]: 12% | Activity [17]: 14% | Activity [18]: 15.9% | Activity [19]: 14.5% | Activity [20]: 24.6% | Activity [21]: 19.8% | Activity [22]: 33.3% | Activity [23]: inactive | Drug uptake [24]: Active | Drug uptake [25]: Active | Activity [26]: 47.9% | Activity [27]: 38.2% | Activity [28]: Active | Activity [29]: Active | Activity [30]: Active
